Several values for one entry are separate records, joined by “and”; a condition that tells them apart may be missing. Equal values may be shown once. Read-outs that look alike come from different tables or passages of the source.
Legend:
[1] = test system: acyl coenzyme A synthetase; conditions: in contrast to UDCA; cited from earlier work
[2] = test system: experimental alcoholic steatohepatitis; conditions: preventive administration; compared to UDCA; Belonovskaya et al. (2013); cited from earlier work
[3] = test system: mouse models of obesity and steatosis; conditions: cited from earlier work
[4] = test system: Patients with a clinical diagnosis of non-alcoholic hepatic steatosis; assay: Liver enzymes (serum ALT, AST, GGT, AP, bilirubin), phase II clinical trial; type: in vivo, human; conditions: for change of AST: V2 to V6-LOCF; for ALT change, Mean ± SD / ALT/AST ratio change, Mean ± SD / AST change, Mean ± SD / Serum bilirubin change, Mean ± SD: V6 (LOCF)-V2; for patients fulfilling outcome criterion ALT≤0.8 ULN: patients with ALT>0.8 at baseline; for patients fulfilling outcome criterion ALT<ULN: patients with ALT>1.0 at baseline; for patients fulfilling outcome criterion ALT<1.5 ULN: patients with ALT>1.5 at baseline;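 as to Serum bilirubin, Mean ± SD: unit mg/dL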
Method: A double-blinded, randomized, placebo-controlled phase II clinical trial was conducted as described in the following.
Patients with a clinical diagnosis of non-alcoholic hepatic steatosis were randomized to a 12-week treatment period and a 4-week follow-up. Patients were divided into three groups. The first groups received 1,500 mg Nor-UDCA per day (6 capsules with 250 mg Nor-UDCA in each capsule). The second group received 500 mg Nor-UDCA per day (2 capsules with 250 mg Nor-UDCA in each capsule and 4 capsules with 250 mg placebo in each capsule). The third group received 6 capsules with 250 mg placebo in each capsule.
The effects of Nor-UDCA on liver enzyme values have been assessed with respect to the courses of ALT, AST, GGT, AP and serum bilirubin. In addition, treatment effects with respect to pre-defined outcome criteria based on the upper limits of normal (ULN) of ALT, AST and GGT were examined.
The serum levels of ALT, AST, GGT, AP and serum bilirubin were determined by established standard laboratory methods.

[5] = N500 (500 mg/day), V2 baseline week 0
[6] = N1500 (1,500 mg/day), V2 baseline week 0
[7] = N1500 (1,500 mg/day), V3 week 2
[8] = N1500 (1,500 mg/day), V4 week 4
[9] = N1500 (1,500 mg/day), V5 week 8
[10] = N1500 (1,500 mg/day), V6 (LOCF)
[11] = N1500 (1,500 mg/day), V6 week 12

CC(CC(=O)O)[C@H]1CCC2[C@H]3C(CC[C@@]21C)[C@@]1(C)CCC(O)C[C@H]1C[C@@H]3O (stereo partly shown) [Nor-UDCA, 24-nor-ursodeoxycholic acid]
N-acyl amidation with taurine or glycine [1]: only minimal | substrate for acyl coenzyme A synthetase [1]: poor substrate | preventing the accumulation of triglycerides in the liver [2]: most effective | reduction in ALT ([3]; mouse model of obesity and steatosis, Steinacher et al. (2015)): significant reduction | reduction in ALT ([3]; mouse models of obesity and steatosis, Steinacher et al. (2017)): considerable reduction | mean absolute change of ALT from V2 to V6-LOCF ([4]; N500 (500 mg/day)): −7.0 U/I | patients fulfilling criterion AST>0.33 ULN to ≤0.67 ULN ([4]; N500 (500 mg/day)): 26.4% | patients fulfilling outcome criterion GGT>0.33 ULN to ≤0.67 ([4]; N500 (500 mg/day)): 13.0% | patients with combined criterion of ALT and/or AST decrease 15% ([4]; N500 (500 mg/day)): 49.3% | proportion of patients fulfilling criterion AST<1.5 ULN ([4]; N500 (500 mg/day)): 50.0% | proportion of patients fulfilling criterion AST<ULN ([4]; N500 (500 mg/day)): 27.3% | proportion of patients, criterion GGT ULN ([4]; N500 (500 mg/day)): 12.2% | GGT ([4]; N500 (500 mg/day), V2): 144.7 U/I | ALT, Mean ± SD [4, 5]: 80.3 ± 33.3 U/l | ALT/AST, Mean ± SD [4, 5]: 1.71 ± 0.50 | AP, Mean ± SD [4, 5]: 83.9 ± 27.6 U/l | AST, Mean ± SD [4, 5]: 49.8 ± 27.4 U/l | GGT, Mean ± SD [4, 5]: 144.7 ± 160.0 U/l | Serum bilirubin, Mean ± SD [4, 5]: 0.64 ± 0.40 mg/dL | change of AST ([4]; N500 (500 mg/day)): −3.8 U/I | ALT, Mean ± SD ([4]; N500 (500 mg/day), V3 week 2): 79.4 ± 40.6 U/l | ALT/AST, Mean ± SD ([4]; N500 (500 mg/day), V3 week 2): 1.70 ± 0.51 | AP, Mean ± SD ([4]; N500 (500 mg/day), V3 week 2): 88.3 ± 34.3 U/l | AST, Mean ± SD ([4]; N500 (500 mg/day), V3 week 2): 47.9 ± 22.4 U/l | GGT, Mean ± SD ([4]; N500 (500 mg/day), V3 week 2): 151.9 ± 166.4 U/l | Serum bilirubin, Mean ± SD ([4]; N500 (500 mg/day), V3 week 2): 0.63 ± 0.38 mg/dL | ALT, Mean ± SD ([4]; N500 (500 mg/day), V4 week 4): 75.2 ± 34.6 U/l | ALT/AST, Mean ± SD ([4]; N500 (500 mg/day), V4 week 4): 1.67 ± 0.48 | AP, Mean ± SD ([4]; N500 (500 mg/day), V4 week 4): 86.5 ± 34.3 U/l | AST, Mean ± SD ([4]; N500 (500 mg/day), V4 week 4): 46.0 ± 18.8 U/l | GGT, Mean ± SD ([4]; N500 (500 mg/day), V4 week 4): 138.9 ± 141.6 U/l | Serum bilirubin, Mean ± SD ([4]; N500 (500 mg/day), V4 week 4): 0.61 ± 0.38 mg/dL | ALT, Mean ± SD ([4]; N500 (500 mg/day), V5 week 8): 75.6 ± 36.8 U/l | ALT/AST, Mean ± SD ([4]; N500 (500 mg/day), V5 week 8): 1.66 ± 0.47 | AP, Mean ± SD ([4]; N500 (500 mg/day), V5 week 8): 86.1 ± 30.0 U/l | AST, Mean ± SD ([4]; N500 (500 mg/day), V5 week 8): 46.9 ± 24.4 U/l | GGT, Mean ± SD ([4]; N500 (500 mg/day), V5 week 8): 133.6 ± 124.2 U/l | Serum bilirubin, Mean ± SD ([4]; N500 (500 mg/day), V5 week 8): 0.64 ± 0.41 mg/dL | ALT, Mean ± SD ([4]; N500 (500 mg/day), V6 (LOCF)): 72.8 ± 33.2 U/l | ALT/AST, Mean ± SD ([4]; N500 (500 mg/day), V6 (LOCF)): 1.67 ± 0.48 | AP, Mean ± SD ([4]; N500 (500 mg/day), V6 (LOCF)): 86.9 ± 32.2 U/l | AST, Mean ± SD ([4]; N500 (500 mg/day), V6 (LOCF)): 45.6 ± 24.7 U/l | GGT, Mean ± SD ([4]; N500 (500 mg/day), V6 (LOCF)): 137.6 ± 144.8 U/l | Serum bilirubin, Mean ± SD ([4]; N500 (500 mg/day), V6 (LOCF)): 0.62 ± 0.38 mg/dL | ALT change, Mean ± SD ([4]; N500 (500 mg/day)): −7.0 ± 27.4 U/l | ALT/AST ratio change, Mean ± SD ([4]; N500 (500 mg/day)): −0.05 and −0.05 ± 0.37 | AST change, Mean ± SD ([4]; N500 (500 mg/day)): −3.8 ± 14.3 U/l | Serum bilirubin change, Mean ± SD ([4]; N500 (500 mg/day)): -0.01 ± 0.22 mg/dL | GGT ([4]; N500 (500 mg/day), V6-LOCF): 137.6 U/I | ALT, Mean ± SD ([4]; N500 (500 mg/day), V6 week 12): 70.8 ± 31.6 U/l | ALT/AST, Mean ± SD ([4]; N500 (500 mg/day), V6 week 12): 1.66 ± 0.45 | AP, Mean ± SD ([4]; N500 (500 mg/day), V6 week 12): 87.4 ± 32.7 U/l | AST, Mean ± SD ([4]; N500 (500 mg/day), V6 week 12): 43.9 ± 20.4 U/l | GGT, Mean ± SD ([4]; N500 (500 mg/day), V6 week 12): 139.2 ± 147.6 U/l | Serum bilirubin, Mean ± SD ([4]; N500 (500 mg/day), V6 week 12): 0.62 ± 0.36 mg/dL | patients fulfilling outcome criterion ALT≤0.8 ULN ([4]; N500 (500 mg/day)): 14.8% | patients fulfilling outcome criterion ALT<ULN ([4]; N500 (500 mg/day)): 16.9% | patients fulfilling outcome criterion ALT<1.5 ULN ([4]; N500 (500 mg/day)): 37.9% | mean absolute change of ALT from V2 to V6-LOCF ([4]; N1500 (1,500 mg/day)): −17.2 U/I | patients fulfilling criterion AST>0.33 ULN to ≤0.67 ULN ([4]; N1500 (1,500 mg/day)): 32.7% | patients fulfilling outcome criterion GGT>0.33 ULN to ≤0.67 ([4]; N1500 (1,500 mg/day)): 21.6% | patients with combined criterion of ALT and/or AST decrease 15% ([4]; N1500 (1,500 mg/day)): 71.6% | proportion of patients fulfilling criterion AST<1.5 ULN ([4]; N1500 (1,500 mg/day)): 75.0% | proportion of patients fulfilling criterion AST<ULN ([4]; N1500 (1,500 mg/day)): 54.5% | proportion of patients, criterion GGT ULN ([4]; N1500 (1,500 mg/day)): 31.0% | GGT ([4]; N1500 (1,500 mg/day), V2): 178.8 U/I | ALT, Mean ± SD [4, 6]: 78.6 ± 34.2 U/l | ALT/AST, Mean ± SD [4, 6]: 1.68 ± 0.53 | AP, Mean ± SD [4, 6]: 92.0 ± 36.6 U/l | AST, Mean ± SD [4, 6]: 49.3 ± 25.1 U/l | GGT, Mean ± SD [4, 6]: 178.8 ± 205.6 U/l | Serum bilirubin, Mean ± SD [4, 6]: 0.61 ± 0.32 mg/dL | change of AST ([4]; N1500 (1,500 mg/day)): −8.7 U/I | ALT, Mean ± SD [4, 7]: 72.8 ± 33.1 U/l | ALT/AST, Mean ± SD [4, 7]: 1.66 ± 0.41 | AP, Mean ± SD [4, 7]: 95.4 ± 40.1 U/l | AST, Mean ± SD [4, 7]: 43.7 ± 15.7 U/l | GGT, Mean ± SD [4, 7]: 170.1 ± 217.9 U/l | Serum bilirubin, Mean ± SD [4, 7]: 0.52 ± 0.26 mg/dL | ALT, Mean ± SD [4, 8]: 62.6 ± 24.7 U/l | ALT/AST, Mean ± SD [4, 8]: 1.53 ± 0.41 | AP, Mean ± SD [4, 8]: 90.9 ± 32.0 U/l | AST, Mean ± SD [4, 8]: 42.6 ± 19.9 U/l | GGT, Mean ± SD [4, 8]: 128.5 ± 126.1 U/l | Serum bilirubin, Mean ± SD [4, 8]: 0.53 ± 0.26 mg/dL | ALT, Mean ± SD [4, 9]: 62.0 ± 27.9 U/l | ALT/AST, Mean ± SD [4, 9]: 1.54 ± 0.34 | AP, Mean ± SD [4, 9]: 91.1 ± 33.3 U/l | AST, Mean ± SD [4, 9]: 40.5 ± 16.3 U/l | GGT, Mean ± SD [4, 9]: 111.5 ± 112.7 U/l | Serum bilirubin, Mean ± SD [4, 9]: 0.54 ± 0.28 mg/dL | ALT, Mean ± SD [4, 10]: 61.8 ± 28.3 U/l | ALT/AST, Mean ± SD [4, 10]: 1.54 ± 0.34 | AP, Mean ± SD [4, 10]: 91.8 ± 32.1 U/l | AST, Mean ± SD [4, 10]: 40.8 ± 19.1 U/l | GGT, Mean ± SD [4, 10]: 111.7 ± 116.3 U/l | Serum bilirubin, Mean ± SD [4, 10]: 0.57 ± 0.31 mg/dL | ALT change, Mean ± SD ([4]; N1500 (1,500 mg/day)): −17.2 ± 23.3 U/l | ALT/AST ratio change, Mean ± SD ([4]; N1500 (1,500 mg/day)): −0.14 and −0.14 ± 0.42 | AST change, Mean ± SD ([4]; N1500 (1,500 mg/day)): −8.7 ± 13.6 U/l | Serum bilirubin change, Mean ± SD ([4]; N1500 (1,500 mg/day)): -0.03 ± 0.20 mg/dL | GGT ([4]; N1500 (1,500 mg/day), V6-LOCF): 111.7 U/I | ALT, Mean ± SD [4, 11]: 62.8 ± 29.1 U/l | ALT/AST, Mean ± SD [4, 11]: 1.55 ± 0.34 | AP, Mean ± SD [4, 11]: 92.9 ± 31.3 U/l | AST, Mean ± SD [4, 11]: 41.3 ± 19.8 U/l | GGT, Mean ± SD [4, 11]: 109.6 ± 115.8 U/l | Serum bilirubin, Mean ± SD [4, 11]: 0.56 ± 0.32 mg/dL | patients fulfilling outcome criterion ALT≤0.8 ULN ([4]; N1500 (1,500 mg/day)): 17.5% | patients fulfilling outcome criterion ALT<ULN ([4]; N1500 (1,500 mg/day)): 35.7% | patients fulfilling outcome criterion ALT<1.5 ULN ([4]; N1500 (1,500 mg/day)): 53.1% | differences in the course of AP and serum bilirubin values between N1500, N500 and Placebo ([4]; N1500 and N500 versus Placebo): no relevant differences

Source: US11850252B2, “Use of nor-ursodeoxycholic acid for reducing liver fat” (Dr. Falk Pharma GmbH, priority 2017, dated 2023)
